Measurements as given in ChEMBL document CHEMBL1828565, “Potential AMPK activators of cucurbitane triterpenoids from Siraitia grosvenorii Swingle” (Bioorg Med Chem, 2011).
Active and inactive are the calls of the source. No cut-off for these calls is given here.

Assays:
[1] = target: T1, AMP-activated protein kinase, AMPK (Homo sapiens) (UniProt P54646+O43741+P54619+Q9UGJ0+Q9Y478+Q13131+Q9UGI9); assay: Activation of AMPK in human HepG2 cells assessed as increase in AMPK phosphorylation at 10 uM after 30 mins by Western blotting; assay type: cell-based
[2] = target: T1, AMP-activated protein kinase, AMPK (Homo sapiens); assay: Activation of AMPK in human HepG2 cells assessed as increase in AMPK phosphorylation at 1 to 20 uM after 30 mins by Western blotting; assay type: cell-based

Row | Activity [1] | Activity [2] | Compound
1 | Active |  | CC(C)C(=O)CC[C@@H](C)[C@H]1CC[C@@]2(C)[C@@H]3CC=C4[C@@H](CC[C@@H](O)C4(C)C)[C@]3(C)[C@H](O)C[C@]12C
2 |  | inactive | C[C@H](CC[C@@H](O[C@@H]1O[C@H](CO[C@@H]2O[C@H](CO)[C@@H](O)[C@H](O)[C@H]2O)[C@@H](O)[C@H](O)[C@H]1O[C@@H]1O[C@H](CO)[C@@H](O)[C@H](O)[C@H]1O)C(C)(C)O)[C@H]1CC[C@@]2(C)[C@@H]3CC=C4[C@@H](CC[C@H](O[C@@H]5O[C@H](CO[C@@H]6O[C@H](CO)[C@@H](O)[C@H](O)[C@H]6O)[C@@H](O)[C@H](O)[C@H]5O)C4(C)C)[C@]3(C)[C@H](O)C[C@]12C
3 |  | Active | COC(C)(C)[C@H](O)CC[C@@H](C)[C@H]1CC[C@@]2(C)[C@@H]3CC=C4[C@@H](CC[C@H](O)C4(C)C)[C@]3(C)C(=O)C[C@]12C

Further lines, the compound ahead of its results:

Row | Compound | Activity [1] | Activity [2]
4 | C[C@H](CC[C@@H](O)C(C)(C)O)[C@H]1CC[C@@]2(C)[C@@H]3CC=C4[C@@H](CC[C@H](O)C4(C)C)[C@]3(C)[C@H](O)C[C@]12C |  | Active
5 | COc1ccc2cc3[n+](cc2c1OC)CCc1cc2c(cc1-3)OCO2 |  | Active
6 | C[C@H](CC[C@@H](O)C(C)(C)O)[C@H]1CC[C@@]2(C)[C@@H]3CC=C4[C@@H](CC[C@@H](O)C4(C)C)[C@]3(C)[C@H](O)C[C@]12C |  | Active
7 | CC(C)C(=O)CC[C@@H](C)[C@H]1CC[C@@]2(C)[C@@H]3CC=C4[C@@H](CC[C@H](O)C4(C)C)[C@]3(C)[C@H](O)C[C@]12C |  | Active
8 | CC(C)C(=O)CC[C@@H](C)[C@H]1CC[C@@]2(C)[C@@H]3CC=C4[C@@H](CC[C@H](O)C4(C)C)[C@]3(C)C(=O)C[C@]12C |  | Active
9 | C[C@H](CC[C@@H](O)C(C)(C)O)[C@H]1CC[C@@]2(C)[C@@H]3CC=C4[C@@H](CC[C@H](O)C4(C)C)[C@]3(C)C(=O)C[C@]12C |  | Active
10 | COC(C)(C)[C@H](O)CC[C@@H](C)[C@H]1CC[C@@]2(C)[C@@H]3CC=C4[C@@H](CC[C@H](O)C4(C)C)[C@]3(C)[C@H](O)C[C@]12C |  | Active
